Assay results as given in patent publication US11717508B2, “Compounds, compositions, and methods for inhibiting bacterial growth” (priority 2016, dated 2023).

Tested on: DosRST regulon
Assay type: cell-based
[1] = Rv0569, WT Mtb treated with HC102A compared to DMSO
[2] = Rv0570 nrdZ, WT Mtb treated with HC102A compared to DMSO
[3] = Rv0571c, WT Mtb treated with HC102A compared to DMSO
[4] = Rv0572c, WT Mtb treated with HC102A compared to DMSO
[5] = Rv0573c, WT Mtb treated with HC102A compared to DMSO
[6] = Rv0574c, WT Mtb treated with HC102A compared to DMSO
[7] = Rv1733c, WT Mtb treated with HC102A compared to DMSO
[8] = Rv1735c, WT Mtb treated with HC102A compared to DMSO
[9] = Rv1736c narX, WT Mtb treated with HC102A compared to DMSO
[10] = Rv1737c narK2, WT Mtb treated with HC102A compared to DMSO
[11] = Rv1738, WT Mtb treated with HC102A compared to DMSO
[12] = Rv1790 PPE, WT Mtb treated with HC102A compared to DMSO
[13] = Rv1812c, WT Mtb treated with HC102A compared to DMSO
[14] = Rv1813c, WT Mtb treated with HC102A compared to DMSO

C[C@@H]1CC(C)(C)C[C@]2(C1)NC(=O)NC2=O (racemic) [HC102A, 7,7,9-trimethyl-1,3-diazaspiro[4.5]decane-2,4-dione]
genes downregulated by compound (total) (40 μM, 6 days, >2-fold, p<0.05): 55 genes
downregulation of tgs1 gene (transcriptional profiling) (CDC1551, 40 μM, 6 days): ~20 fold
Fold change, gene MT0595 [1]: 0.1089
log2 Fold change, gene MT0595 [1]: −3.199
Counts per million (CPM) WT_HC102A1, gene MT0595 (Rv0569, WT Mtb treated with HC102A, replicate 1): 21.38 CPM
Counts per million (CPM) WT_HC102A2, gene MT0595 (Rv0569, WT Mtb treated with HC102A, replicate 2): 25.92 CPM
Fold change, gene MT0596 [2]: 0.04533
log2 Fold change, gene MT0596 [2]: −4.464
Counts per million (CPM) WT_HC102A1, gene MT0596 (Rv0570 nrdZ, WT Mtb treated with HC102A, replicate 1): 102.7 CPM
Counts per million (CPM) WT_HC102A2, gene MT0596 (Rv0570 nrdZ, WT Mtb treated with HC102A, replicate 2): 94.1 CPM
Fold change, gene MT0597 [3]: 0.2805
log2 Fold change, gene MT0597 [3]: −1.834
Counts per million (CPM) WT_HC102A1, gene MT0597 (Rv0571c, WT Mtb treated with HC102A, replicate 1): 94.1998 CPM
Counts per million (CPM) WT_HC102A2, gene MT0597 (Rv0571c, WT Mtb treated with HC102A, replicate 2): 81.32 CPM
Fold change, gene MT0599 [4]: 0.2441
log2 Fold change, gene MT0599 [4]: −2.034
Counts per million (CPM) WT_HC102A1, gene MT0599 (Rv0572c, WT Mtb treated with HC102A, replicate 1): 127.4 CPM
Counts per million (CPM) WT_HC102A2, gene MT0599 (Rv0572c, WT Mtb treated with HC102A, replicate 2): 180.6 CPM
Fold change, gene MT0601 [5]: 0.1932
log2 Fold change, gene MT0601 [5]: −2.372
Counts per million (CPM) WT_HC102A1, gene MT0601 (Rv0573c, WT Mtb treated with HC102A, replicate 1): 13.82 CPM
Counts per million (CPM) WT_HC102A2, gene MT0601 (Rv0573c, WT Mtb treated with HC102A, replicate 2): 19.29 CPM
Fold change, gene MT0602 [6]: 0.1416
log2 Fold change, gene MT0602 [6]: −2.82
Counts per million (CPM) WT_HC102A1, gene MT0602 (Rv0574c, WT Mtb treated with HC102A, replicate 1): 45.11 CPM
Counts per million (CPM) WT_HC102A2, gene MT0602 (Rv0574c, WT Mtb treated with HC102A, replicate 2): 51.54 CPM
Fold change, gene MT1774 [7]: 0.07551
log2 Fold change, gene MT1774 [7]: −3.727
Counts per million (CPM) WT_HC102A1, gene MT1774 (Rv1733c, WT Mtb treated with HC102A, replicate 1): 109.6 CPM
Counts per million (CPM) WT_HC102A2, gene MT1774 (Rv1733c, WT Mtb treated with HC102A, replicate 2): 116 CPM
Fold change, gene MT1776 [8]: 0.2742
log2 Fold change, gene MT1776 [8]: −1.867
Counts per million (CPM) WT_HC102A1, gene MT1776 (Rv1735c, WT Mtb treated with HC102A, replicate 1): 5.202 CPM
Counts per million (CPM) WT_HC102A2, gene MT1776 (Rv1735c, WT Mtb treated with HC102A, replicate 2): 4.163 CPM
Fold change, gene MT1778 [9]: 0.05545
log2 Fold change, gene MT1778 [9]: −4.173
Counts per million (CPM) WT_HC102A1, gene MT1778 (Rv1736c narX, WT Mtb treated with HC102A, replicate 1): 234.5 CPM
Counts per million (CPM) WT_HC102A2, gene MT1778 (Rv1736c narX, WT Mtb treated with HC102A, replicate 2): 246.1 CPM
Fold change, gene MT1779 [10]: 0.04997
log2 Fold change, gene MT1779 [10]: −4.323
Counts per million (CPM) WT_HC102A1, gene MT1779 (Rv1737c narK2, WT Mtb treated with HC102A, replicate 1): 72.42 CPM
Counts per million (CPM) WT_HC102A2, gene MT1779 (Rv1737c narK2, WT Mtb treated with HC102A, replicate 2): 91.94 CPM
Fold change, gene MT1780 [11]: 0.1174
log2 Fold change, gene MT1780 [11]: −3.091
Counts per million (CPM) WT_HC102A1, gene MT1780 (Rv1738, WT Mtb treated with HC102A, replicate 1): 337.8 CPM
Counts per million (CPM) WT_HC102A2, gene MT1780 (Rv1738, WT Mtb treated with HC102A, replicate 2): 628.9 CPM
Fold change, gene MT1839 [12]: 0.466
log2 Fold change, gene MT1839 [12]: −1.102
Counts per million (CPM) WT_HC102A1, gene MT1839 (Rv1790 PPE, WT Mtb treated with HC102A, replicate 1): 29.83 CPM
Counts per million (CPM) WT_HC102A2, gene MT1839 (Rv1790 PPE, WT Mtb treated with HC102A, replicate 2): 18.94 CPM
Fold change, gene MT1860 [13]: 0.3171
log2 Fold change, gene MT1860 [13]: −1.657
Counts per million (CPM) WT_HC102A1, gene MT1860 (Rv1812c, WT Mtb treated with HC102A, replicate 1): 54.94 CPM
Counts per million (CPM) WT_HC102A2, gene MT1860 (Rv1812c, WT Mtb treated with HC102A, replicate 2): 65.84 CPM
Fold change, gene MT1861 [14]: 0.06232
log2 Fold change, gene MT1861 [14]: −4.004
Counts per million (CPM) WT_HC102A1, gene MT1861 (Rv1813c, WT Mtb treated with HC102A, replicate 1): 121.3 CPM
